Results taken from US8735445B2, “Inhibitors of 15-hydroxyprostaglandin dehydrogenase for stimulating pigmentation of the skin or skin appendages” (L'Oreal, priority 2003, dated 2014).
Like-named read-outs stand apart in the source and are kept apart here.

How the values were obtained:
[1] = target: T1, 15-PGDH (Homo sapiens, UniProt P15428); assay: 15-PGDH test (spectrophotometric, NADH at 340 nm, PGE2 substrate); assay type: biochemical; details: Example I-5
T1 construct: GST (from vector pGEX-4T3); made in house; host or cells: E. coli BL21 DE3plys
T1 sequence (P15428 1-266): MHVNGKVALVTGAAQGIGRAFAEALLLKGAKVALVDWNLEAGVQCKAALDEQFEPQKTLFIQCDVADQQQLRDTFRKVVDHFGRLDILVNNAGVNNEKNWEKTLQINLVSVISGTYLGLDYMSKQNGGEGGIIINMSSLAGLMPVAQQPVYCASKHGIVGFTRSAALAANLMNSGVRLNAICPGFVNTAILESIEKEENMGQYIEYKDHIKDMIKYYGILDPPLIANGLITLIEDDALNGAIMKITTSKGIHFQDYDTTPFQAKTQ
Experimental: The enzyme obtained is at a concentration of 0.3 mg/ml and is blocked at −80° C. This suspension is thawed and stored in ice.
A 100 mM Tris buffer, pH—7.4, containing 0.1 mM of dithiothreitol (D5545, Sigma-Aldrich, L'isle D'Abeau Chesne, BP 701, 38297, Saint Quentin Fallavier), 1.5 mM of 13-NAD (N6522, Sigma-Aldrich, L'isle D'Abeau Chesne, BP 701, 38297, Saint Quentin Fallavier) and 50 μM of prostaglandin E2 (P4172, Sigma-Aldrich, L'isle D'Abeau Chesne, BP 701, 38297, Saint Quentin Fallavier) is prepared.
0.965 ml of this buffer (brought to 37° C. beforehand) is placed in the cuvette of a spectrophotomer (Perkin-Elmer, Lambda 2) thermostated at 37° C., the measuring wavelength of which is set at 340 nm. 0.035 ml of enzyme suspension at 37° C. is placed in the cuvette concomitantly with the recording (increase in optical density at 340 nm).
The maximum reaction rate is recorded.
The assay values (molecules) are compared with the control value (without molecule), and the results are expressed as % of the control value.
The assay is carried out as described in example 4a.
The methodology is that described in example 1-5.

[2] = target: T2, PGF synthase (PGFS) (Homo sapiens, UniProt P42330); assay: Test on PGFS (PGF synthase; phenanthrenequinone/NADPH, 340 nm); assay type: biochemical
T2 sequence (P42330 1-323): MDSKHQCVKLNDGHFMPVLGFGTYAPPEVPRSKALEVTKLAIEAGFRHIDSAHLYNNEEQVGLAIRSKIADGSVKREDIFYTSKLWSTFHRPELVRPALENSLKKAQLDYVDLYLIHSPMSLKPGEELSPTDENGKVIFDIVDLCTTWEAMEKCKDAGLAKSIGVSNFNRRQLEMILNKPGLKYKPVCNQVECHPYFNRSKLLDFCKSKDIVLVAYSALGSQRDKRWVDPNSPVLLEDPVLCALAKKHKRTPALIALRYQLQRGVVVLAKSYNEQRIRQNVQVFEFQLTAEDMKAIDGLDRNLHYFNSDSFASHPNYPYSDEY
Experimental: The PGF synthase enzyme is obtained as described in FR-A-02/05067, at a concentration of 0.5 mg/ml, in suspension in an appropriate medium, and is blocked at −80° C. For the needs of the test, this suspension is thawed and stored in ice.
Moreover, a 100 mM Tris buffer, pH=6.5, containing 20 μM of 9.10-phenanthrenequinone* (P2896, Sigma-Aldrich, L′ isle D'Abeau Chesne, BP 701, 38297, Saint Quentin Fallavier) and 100 μM of β-NAPDH(N1630, Sigma-Aldrich, L'isle D'Abeau Chesne, BP 701, 38297, Saint Quentin Fallavier), is prepared in a brown bottle (exclusion of light).
*A stock solution having a titer of 1 mM is prepared in absolute ethanol, brought to 40° C.; the flask is placed in an ultrasound tank so as to facilitate solubilization of the product.
0.950 ml of this buffer (brought beforehand to 37° C.) is introduced into the cuvette of a spectrophotometer (Perkin-Elmer, Lambda 2) thermostatically controlled at 37° C., the measuring wavelength of which is set at 340 nm. 0.05 ml of enzymatic suspension at 37° C. is introduced into the cuvette concomitantly with the recording (corresponding to a decrease in optical density at 340 nm). The maximum reaction rate is recorded. […]

[3] = tested on: melanocyte line MeWo; assay: Protection of PGF2α in melanocyte line MeWo; assay type: cell-based; details: 4 hours, MeWo melanocytes
Experimental: An ampoule of Mewo melanocytes (American type cell collection, HTB-65) is amplified (75 cm^2 flask, Costar), in DMEM medium (Gibco)+10% fetal calf serum+2 mM of L-glutamine+1% of antibiotics (Gibco). After confluence, these cells (48 hours to 72 hours) are resuspended in this same culture medium, after the action of trypsin (according to a procedure conventionally used in cell culture), in a proportion of 600 000 cells per ml.
200 μl of this suspension are introduced into n times 6 wells (n being the total number of assays, i.e., x molecules at 2 concentrations) of a 96-well plate (Costar). The plate is placed in an incubator at 37° C. under 5% CO2.
Preparation, in DMSO of the 1000× stock solutions of the active agents to be evaluated (i.e., 5 and 25 mM).
Removal of the supernatants from the cultures previously prepared (96-well plate), and rinsing with 100 μl/well of DMEM medium+additives (see above description) preheated to 37° C.
Introduction of 100 μl/well of DMEM medium (+additives) containing 0.1 μl of DMSO (control) or 0.1 μl of the stock solution of the active agent to be evaluated (there are 6 assay wells per molecule and per concentration).
Practically 1 ml of solution is prepared for each of the active agents (and per concentration) to be tested, therefore 1 ml of medium+1 μl of DMSO (control) or of 1000× stock solution.
The plate is again placed in an incubator at 37° C. under 5% CO2 for 4 hours, and then a PGF2α assay is carried out on 50 μl of each of the supernatants (of the various assays) by means of an immunoenzymatic kit (according to the supplier's recommendations (PGF2α, EIA kit, ref. 516011, Cayman)).
Results (as % of the amount of PGF2α measured under the control conditions): […]

Structure (SMILES) | % of the amount of PGF2α measured under the control conditions ([3]; 5 μM) | % of the amount of PGF2α measured under the control conditions ([3]; 25 μM) | further results
O=C1NC(=O)C(=Cc2ccc(-c3ccc(C(=O)O)cc3)o2)S1 [Compound 1 of example I, 4-{5-[(2,4-dioxo-1,3-thiazolidin-5-ylidene)methyl]-2-furyl}benzoic acid] | – | – | IC50fs/IC50dh ratio ([1]; selectivity for 15-PGDH with respect to PGFS): greater than 13
O=C1NC(=O)/C(=C/c2ccc(-c3ccc(C(=O)O)cc3)o2)S1 [Compound 1, 4-{5-[(2,4-dioxo-1,3-thiazolidin-5-ylidene)methyl]-2-furyl}benzoic acid] | – | – | IC50 ([2]; Example I-5, read-out: Inhibition of PGFS IC50fs): 4 µM; IC50 ([1]; read-out: Inhibition 15-PGDH IC50dh): 300 nM
O=C1NC(=O)/C(=C/c2ccc(-c3ccc(C(=O)O)cc3)o2)S1 [Compound 1a of example I] | +67% | +51% | –
COc1ccccc1/C=C(\C#N)c1nn(-c2ccccc2)c(N)c1C#N [Compound 9 of example II] | – | – | IC50 ([2]; Example II-2, read-out: Inhibition of PGF synthase IC50fs): > 50 µM
COC(=O)c1cc(/N=N/c2ccc(O)c(CC(=O)O)c2)cc(C(=O)OC)c1 [PhCL28A, reference compound] | +43% | +147% | –
